Each compound was assayed against T1, Lysosomal acid glucosylceramidase (Homo sapiens, UniProt P04062).
T1 sequence (P04062 whole entry): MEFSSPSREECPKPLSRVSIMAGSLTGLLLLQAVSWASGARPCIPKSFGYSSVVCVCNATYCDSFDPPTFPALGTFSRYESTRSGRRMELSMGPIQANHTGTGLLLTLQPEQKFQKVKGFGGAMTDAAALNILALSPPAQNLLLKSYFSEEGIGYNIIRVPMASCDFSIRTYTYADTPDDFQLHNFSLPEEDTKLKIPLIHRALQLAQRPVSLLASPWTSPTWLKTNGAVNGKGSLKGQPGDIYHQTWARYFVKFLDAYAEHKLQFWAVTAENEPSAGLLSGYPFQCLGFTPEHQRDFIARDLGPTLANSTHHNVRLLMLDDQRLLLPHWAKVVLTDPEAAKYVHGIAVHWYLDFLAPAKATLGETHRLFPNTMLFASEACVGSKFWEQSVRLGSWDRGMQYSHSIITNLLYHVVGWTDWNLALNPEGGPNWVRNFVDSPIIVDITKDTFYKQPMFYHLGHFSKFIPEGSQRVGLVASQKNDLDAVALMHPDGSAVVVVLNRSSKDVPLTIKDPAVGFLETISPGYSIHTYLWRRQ

Structure (SMILES) | IC50 [nM]
OC[C@H]1[C@@H](O)[C@H](O)[C@@H](O)CN1CCCCCCC12CC3CC(CC(C3)C1)C2 | 25000
OC[C@@H]1[C@@H](O)[C@H](O)[C@@H](O)CN1CC(F)(F)CCCOCc1ccc(-c2ccccc2)cc1 | 125
OC[C@@H]1[C@@H](O)[C@H](O)[C@@H](O)CN1CCCC/C=C\C12CC3CC(CC(C3)C1)C2 | 500
OC[C@H]1[C@@H](O)[C@H](O)[C@@H](O)CN1CCCCCOCc1cc2ccccc2c2ccccc12 | 600000
CC(C)=CCC/C(C)=C/CC/C(C)=C/CCOCCCCCN1C[C@H](O)[C@@H](O)[C@H](O)[C@H]1CO | 2500
OC[C@@H]1[C@@H](O)[C@H](O)[C@@H](O)CN1CCCCCOCc1cc2ccccc2c2ccccc12 | 10000
C[C@@H](OCCCCCN1C[C@H](O)[C@@H](O)[C@H](O)[C@H]1CO)c1ccc(-c2ccccc2)cc1 | 300
C[C@H](OCCCCCN1C[C@H](O)[C@@H](O)[C@H](O)[C@H]1CO)c1ccc(-c2ccccc2)cc1 | 400000
OC[C@@H]1[C@@H](O)[C@H](O)[C@@H](O)CN1CCCCCCC12CC3CC(CC(C3)C1)C2 | 60
OC[C@@H]1[C@@H](O)[C@H](O)[C@@H](O)CN1CCCC(F)(F)COCc1ccc(-c2ccccc2)cc1 | 300
OC[C@H]1[C@@H](O)[C@H](O)[C@@H](O)CN1CCCC/C=C\C12CC3CC(CC(C3)C1)C2 | 12000

These compounds were tested against T2, Ceramide glucosyltransferase (Homo sapiens, UniProt Q16739).
T2 sequence (Q16739 whole entry): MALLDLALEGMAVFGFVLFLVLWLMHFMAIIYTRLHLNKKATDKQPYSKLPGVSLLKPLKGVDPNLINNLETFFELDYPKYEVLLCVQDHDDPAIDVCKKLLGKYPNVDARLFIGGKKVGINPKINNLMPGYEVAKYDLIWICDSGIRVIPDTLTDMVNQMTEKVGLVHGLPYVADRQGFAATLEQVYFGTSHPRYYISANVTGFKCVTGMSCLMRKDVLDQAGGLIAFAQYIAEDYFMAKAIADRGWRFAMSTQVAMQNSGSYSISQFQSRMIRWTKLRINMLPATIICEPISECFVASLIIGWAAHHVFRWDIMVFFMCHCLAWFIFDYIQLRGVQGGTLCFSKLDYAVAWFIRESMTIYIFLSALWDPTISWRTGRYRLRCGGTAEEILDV

Structure (SMILES) | IC50 [nM]
OC[C@@H]1[C@@H](O)[C@H](O)[C@@H](O)CN1CC(F)(F)CCCOCc1ccc(-c2ccccc2)cc1 | 1250
OC[C@H]1[C@@H](O)[C@H](O)[C@@H](O)CN1CCCCCOCc1cccc(-c2ccccc2)c1 | 70
OC[C@H]1[C@@H](O)[C@H](O)[C@@H](O)CN1CC(F)(F)CCCOCc1ccc(-c2ccccc2)cc1 | 20
OC[C@@H]1[C@@H](O)[C@H](O)[C@@H](O)CN1CCCC(F)(F)COCc1ccc(-c2ccccc2)cc1 | 60

Each compound was assayed against Sucrase-isomaltase, intestinal (Homo sapiens, UniProt P14410) (assay: Inhibition of intestinal sucrase (unknown origin)).
Sucrase-isomaltase, intestinal, sequence (P14410 2-1007 limits assumed): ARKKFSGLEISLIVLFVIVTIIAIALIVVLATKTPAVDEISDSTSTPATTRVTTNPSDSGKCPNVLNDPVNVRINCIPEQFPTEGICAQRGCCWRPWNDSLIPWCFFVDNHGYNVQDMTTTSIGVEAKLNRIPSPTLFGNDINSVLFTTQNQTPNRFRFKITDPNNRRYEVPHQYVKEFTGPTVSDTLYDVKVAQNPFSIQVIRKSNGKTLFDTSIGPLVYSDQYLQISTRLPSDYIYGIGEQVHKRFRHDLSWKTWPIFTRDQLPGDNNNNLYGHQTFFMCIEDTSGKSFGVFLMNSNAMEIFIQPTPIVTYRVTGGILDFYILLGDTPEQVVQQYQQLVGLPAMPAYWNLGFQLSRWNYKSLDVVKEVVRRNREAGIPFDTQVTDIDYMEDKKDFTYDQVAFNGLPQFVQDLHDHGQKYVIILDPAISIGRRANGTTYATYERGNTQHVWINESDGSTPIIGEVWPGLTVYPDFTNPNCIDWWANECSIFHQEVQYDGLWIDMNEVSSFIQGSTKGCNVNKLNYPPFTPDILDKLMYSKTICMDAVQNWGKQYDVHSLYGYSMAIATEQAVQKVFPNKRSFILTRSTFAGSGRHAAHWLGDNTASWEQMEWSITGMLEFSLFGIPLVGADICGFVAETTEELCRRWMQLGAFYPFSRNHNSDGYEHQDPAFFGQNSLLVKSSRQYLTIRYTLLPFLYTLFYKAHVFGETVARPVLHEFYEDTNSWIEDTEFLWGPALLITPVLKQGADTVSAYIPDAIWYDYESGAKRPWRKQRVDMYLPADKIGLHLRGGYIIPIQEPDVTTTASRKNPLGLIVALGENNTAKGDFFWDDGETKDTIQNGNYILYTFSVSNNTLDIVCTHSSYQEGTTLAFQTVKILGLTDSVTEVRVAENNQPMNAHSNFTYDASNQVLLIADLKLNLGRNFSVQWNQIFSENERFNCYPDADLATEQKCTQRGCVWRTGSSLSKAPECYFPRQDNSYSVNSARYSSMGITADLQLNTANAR
Sucrase-isomaltase, intestinal, sequence (P14410 1008-1827 limits assumed): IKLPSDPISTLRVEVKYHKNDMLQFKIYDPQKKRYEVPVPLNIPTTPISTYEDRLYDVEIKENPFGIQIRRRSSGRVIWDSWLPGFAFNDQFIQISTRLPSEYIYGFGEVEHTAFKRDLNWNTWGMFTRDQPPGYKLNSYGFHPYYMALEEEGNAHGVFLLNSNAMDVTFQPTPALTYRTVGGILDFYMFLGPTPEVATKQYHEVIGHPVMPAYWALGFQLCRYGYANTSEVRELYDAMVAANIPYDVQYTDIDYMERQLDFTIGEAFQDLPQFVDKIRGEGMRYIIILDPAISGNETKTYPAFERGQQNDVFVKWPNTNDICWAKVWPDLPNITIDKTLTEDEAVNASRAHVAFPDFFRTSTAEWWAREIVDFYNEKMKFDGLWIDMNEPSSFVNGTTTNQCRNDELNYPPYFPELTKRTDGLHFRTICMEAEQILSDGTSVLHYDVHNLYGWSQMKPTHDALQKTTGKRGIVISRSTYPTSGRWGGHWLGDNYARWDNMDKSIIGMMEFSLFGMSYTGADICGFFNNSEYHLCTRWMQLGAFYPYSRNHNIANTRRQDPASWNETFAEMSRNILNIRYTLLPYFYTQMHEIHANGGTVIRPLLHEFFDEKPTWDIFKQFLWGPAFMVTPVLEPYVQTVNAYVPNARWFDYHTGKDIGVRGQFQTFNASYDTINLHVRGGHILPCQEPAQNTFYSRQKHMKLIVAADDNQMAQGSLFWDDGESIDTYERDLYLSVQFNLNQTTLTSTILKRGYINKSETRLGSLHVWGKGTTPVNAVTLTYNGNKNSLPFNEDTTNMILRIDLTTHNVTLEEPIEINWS

Structure (SMILES) | IC50 [nM]
OC[C@@H]1[C@@H](O)[C@H](O)[C@@H](O)CN1CC(F)(F)CCCOCc1ccc(-c2ccccc2)cc1 | 35000
OC[C@H]1[C@@H](O)[C@H](O)[C@@H](O)CN1CCCCCOCc1cccc(-c2ccccc2)c1 | 100000
OC[C@H]1[C@@H](O)[C@H](O)[C@@H](O)CN1CC(F)(F)CCCOCc1ccc(-c2ccccc2)cc1 | > 100000
C[C@@H](OCCCCCN1C[C@H](O)[C@@H](O)[C@H](O)[C@H]1CO)c1ccc(-c2ccccc2)cc1 | 500
C[C@H](OCCCCCN1C[C@H](O)[C@@H](O)[C@H](O)[C@H]1CO)c1ccc(-c2ccccc2)cc1 | 250
OC[C@@H]1[C@@H](O)[C@H](O)[C@@H](O)CN1CCCC(F)(F)COCc1ccc(-c2ccccc2)cc1 | 400

These compounds were tested against T3, Beta-glucosidase (Homo sapiens, UniProt Q9HCG7).
T3 sequence (Q9HCG7 whole entry): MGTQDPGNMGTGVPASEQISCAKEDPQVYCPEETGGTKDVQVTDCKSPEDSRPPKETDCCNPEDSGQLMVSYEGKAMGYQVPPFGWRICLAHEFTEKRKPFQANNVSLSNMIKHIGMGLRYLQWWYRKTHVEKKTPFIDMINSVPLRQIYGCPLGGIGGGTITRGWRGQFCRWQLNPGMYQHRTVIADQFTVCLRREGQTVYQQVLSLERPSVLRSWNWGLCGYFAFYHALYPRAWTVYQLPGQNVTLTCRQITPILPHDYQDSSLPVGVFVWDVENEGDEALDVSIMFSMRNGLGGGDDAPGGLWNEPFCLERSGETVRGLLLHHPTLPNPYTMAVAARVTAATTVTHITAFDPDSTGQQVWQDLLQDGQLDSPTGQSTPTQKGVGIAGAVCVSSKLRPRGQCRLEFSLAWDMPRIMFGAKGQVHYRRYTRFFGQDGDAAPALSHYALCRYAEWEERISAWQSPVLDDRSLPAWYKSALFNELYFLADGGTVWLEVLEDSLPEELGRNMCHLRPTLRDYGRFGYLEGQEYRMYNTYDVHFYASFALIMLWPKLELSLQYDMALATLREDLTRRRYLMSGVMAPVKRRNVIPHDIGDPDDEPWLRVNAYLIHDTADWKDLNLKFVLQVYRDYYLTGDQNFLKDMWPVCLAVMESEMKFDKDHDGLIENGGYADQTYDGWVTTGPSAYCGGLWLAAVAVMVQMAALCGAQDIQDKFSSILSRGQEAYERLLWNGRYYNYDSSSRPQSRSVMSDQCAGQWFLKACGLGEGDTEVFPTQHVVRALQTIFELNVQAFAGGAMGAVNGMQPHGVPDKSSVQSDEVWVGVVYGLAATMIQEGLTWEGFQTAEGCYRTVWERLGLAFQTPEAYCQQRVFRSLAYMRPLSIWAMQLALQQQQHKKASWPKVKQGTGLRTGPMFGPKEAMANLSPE

Structure (SMILES) | IC50 [nM]
OC[C@H]1[C@@H](O)[C@H](O)[C@@H](O)CN1CCCCCCC12CC3CC(CC(C3)C1)C2 | 20
OC[C@@H]1[C@@H](O)[C@H](O)[C@@H](O)CN1CC(F)(F)CCCOCc1ccc(-c2ccccc2)cc1 | 10
OC[C@@H]1[C@@H](O)[C@H](O)[C@@H](O)CN1CCCC/C=C\C12CC3CC(CC(C3)C1)C2 | 5
OC[C@H]1[C@@H](O)[C@H](O)[C@@H](O)CN1CCCCCOCc1cc2ccccc2c2ccccc12 | 200
CC(C)=CCC/C(C)=C/CC/C(C)=C/CCOCCCCCN1C[C@H](O)[C@@H](O)[C@H](O)[C@H]1CO | 100
OC[C@@H]1[C@@H](O)[C@H](O)[C@@H](O)CN1CCCCCOCc1cc2ccccc2c2ccccc12 | 100
C[C@@H](OCCCCCN1C[C@H](O)[C@@H](O)[C@H](O)[C@H]1CO)c1ccc(-c2ccccc2)cc1 | 3
C[C@H](OCCCCCN1C[C@H](O)[C@@H](O)[C@H](O)[C@H]1CO)c1ccc(-c2ccccc2)cc1 | 3
OC[C@@H]1[C@@H](O)[C@H](O)[C@@H](O)CN1CCCCCCC12CC3CC(CC(C3)C1)C2 | 10
OC[C@@H]1[C@@H](O)[C@H](O)[C@@H](O)CN1CCCC(F)(F)COCc1ccc(-c2ccccc2)cc1 | 1
OC[C@H]1[C@@H](O)[C@H](O)[C@@H](O)CN1CCCC/C=C\C12CC3CC(CC(C3)C1)C2 | 8

The compounds below were run against Lactase/phlorizin hydrolase (Homo sapiens, UniProt P09848) (assay: Inhibition of intestinal lactase (unknown origin)).
Lactase/phlorizin hydrolase, sequence (P09848 869-1927 limits assumed): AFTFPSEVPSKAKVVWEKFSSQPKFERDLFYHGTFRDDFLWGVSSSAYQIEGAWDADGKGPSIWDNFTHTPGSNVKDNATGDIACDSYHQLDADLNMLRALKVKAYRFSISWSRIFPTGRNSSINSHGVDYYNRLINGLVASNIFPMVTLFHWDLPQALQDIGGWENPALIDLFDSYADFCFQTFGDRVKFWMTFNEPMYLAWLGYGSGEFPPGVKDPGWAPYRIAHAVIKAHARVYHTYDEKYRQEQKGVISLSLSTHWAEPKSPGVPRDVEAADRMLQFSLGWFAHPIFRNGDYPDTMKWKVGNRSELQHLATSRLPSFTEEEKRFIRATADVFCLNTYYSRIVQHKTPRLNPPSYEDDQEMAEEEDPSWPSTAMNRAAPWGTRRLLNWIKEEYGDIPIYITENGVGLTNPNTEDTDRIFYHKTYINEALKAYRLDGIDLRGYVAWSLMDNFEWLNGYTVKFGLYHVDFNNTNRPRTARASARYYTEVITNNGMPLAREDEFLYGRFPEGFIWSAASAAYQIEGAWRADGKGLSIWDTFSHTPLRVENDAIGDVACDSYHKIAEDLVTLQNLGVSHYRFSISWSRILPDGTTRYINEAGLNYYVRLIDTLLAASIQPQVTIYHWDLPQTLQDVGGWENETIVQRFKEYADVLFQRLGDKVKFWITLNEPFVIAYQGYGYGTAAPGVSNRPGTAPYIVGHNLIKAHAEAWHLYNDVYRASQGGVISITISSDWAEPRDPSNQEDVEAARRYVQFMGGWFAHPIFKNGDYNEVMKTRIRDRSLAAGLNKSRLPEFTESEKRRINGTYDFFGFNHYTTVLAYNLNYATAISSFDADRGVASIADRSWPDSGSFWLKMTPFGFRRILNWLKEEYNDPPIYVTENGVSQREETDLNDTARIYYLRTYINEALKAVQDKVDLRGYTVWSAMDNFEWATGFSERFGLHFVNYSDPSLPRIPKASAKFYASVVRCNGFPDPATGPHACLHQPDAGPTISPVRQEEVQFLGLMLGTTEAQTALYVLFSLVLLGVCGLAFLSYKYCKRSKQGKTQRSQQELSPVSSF

Structure (SMILES) | IC50 [nM]
OC[C@@H]1[C@@H](O)[C@H](O)[C@@H](O)CN1CC(F)(F)CCCOCc1ccc(-c2ccccc2)cc1 | > 100000
OC[C@H]1[C@@H](O)[C@H](O)[C@@H](O)CN1CCCCCOCc1cccc(-c2ccccc2)c1 | 60000
OC[C@H]1[C@@H](O)[C@H](O)[C@@H](O)CN1CC(F)(F)CCCOCc1ccc(-c2ccccc2)cc1 | > 100000
C[C@@H](OCCCCCN1C[C@H](O)[C@@H](O)[C@H](O)[C@H]1CO)c1ccc(-c2ccccc2)cc1 | 35000
C[C@H](OCCCCCN1C[C@H](O)[C@@H](O)[C@H](O)[C@H]1CO)c1ccc(-c2ccccc2)cc1 | 9000
OC[C@@H]1[C@@H](O)[C@H](O)[C@@H](O)CN1CCCC(F)(F)COCc1ccc(-c2ccccc2)cc1 | 27000

Target: T2, Ceramide glucosyltransferase
Remark: another data set of the same source

Structure (SMILES) | IC50
OC[C@H]1[C@@H](O)[C@H](O)[C@@H](O)CN1CCCCCCC12CC3CC(CC(C3)C1)C2 | Not Active
OC[C@@H]1[C@@H](O)[C@H](O)[C@@H](O)CN1CCCC/C=C\C12CC3CC(CC(C3)C1)C2 | Not Active
OC[C@H]1[C@@H](O)[C@H](O)[C@@H](O)CN1CCCCCOCc1cc2ccccc2c2ccccc12 | Not Active
CC(C)=CCC/C(C)=C/CC/C(C)=C/CCOCCCCCN1C[C@H](O)[C@@H](O)[C@H](O)[C@H]1CO | Not Active
OC[C@@H]1[C@@H](O)[C@H](O)[C@@H](O)CN1CCCCCOCc1cc2ccccc2c2ccccc12 | Not Active
OC[C@@H]1[C@@H](O)[C@H](O)[C@@H](O)CN1CCCCCCC12CC3CC(CC(C3)C1)C2 | Not Active
OC[C@H]1[C@@H](O)[C@H](O)[C@@H](O)CN1CCCC/C=C\C12CC3CC(CC(C3)C1)C2 | Not Active

These compounds were tested against Maltase-glucoamylase (Homo sapiens, UniProt O43451) (assay: Inhibition of intestinal maltase (unknown origin)).

Structure (SMILES) | IC50 [nM]
OC[C@@H]1[C@@H](O)[C@H](O)[C@@H](O)CN1CC(F)(F)CCCOCc1ccc(-c2ccccc2)cc1 | > 100000
OC[C@H]1[C@@H](O)[C@H](O)[C@@H](O)CN1CCCCCOCc1cccc(-c2ccccc2)c1 | > 100000
OC[C@H]1[C@@H](O)[C@H](O)[C@@H](O)CN1CC(F)(F)CCCOCc1ccc(-c2ccccc2)cc1 | > 100000
C[C@@H](OCCCCCN1C[C@H](O)[C@@H](O)[C@H](O)[C@H]1CO)c1ccc(-c2ccccc2)cc1 | 4000
C[C@H](OCCCCCN1C[C@H](O)[C@@H](O)[C@H](O)[C@H]1CO)c1ccc(-c2ccccc2)cc1 | 2500
OC[C@@H]1[C@@H](O)[C@H](O)[C@@H](O)CN1CCCC(F)(F)COCc1ccc(-c2ccccc2)cc1 | 9000

— ChEMBL document CHEMBL3352260, “Identification and development of biphenyl substituted iminosugars as improved dual glucosylceramide synthase/neutral glucosylceramidase inhibitors” (J Med Chem, 2014)
